Assay results: US10730870B2, “Compounds and methods for the enhanced degradation of targeted proteins” (Arvinas, Inc., priority 2015, dated 2020)

How the values were obtained:
BRD4 = BRD4 c-myc ELISA assay in 22RV-1 cells; format: cell-based; conditions: 18 hrs
Method: 22RV-1 cells were seeded at 30,000 cells/well at a volume of 75 μL/well in RPMI +10% FBS media in 96-well plates and grown overnight at 37 C. Cells were dosed with compounds at 4× concentration diluted in 0.4% DMSO; compounds were serially diluted 1:3 for 8-point dose curve. 25 ul of compound was added to cells for a final concentration starting at 300 nM-0.3 nM in 0.1% DMSO and incubated for 18 hrs. Media was aspirated, cells washed 1× with PBS and aspirated. Cells were lysed in 50 ul RIPA buffer (50 mM Tris pH8, 150 mM NaCl, 1% Tx-100, 0.1% SDS, 0.5% sodium deoxycholate) supplemented with protease and phosphatase inhibitors. Plates were incubated on ice for 15 minutes then centrifuged at 4° C. for 10 min at 4000 rpm. Added 50 ul of cleared lysate from 96-well assay plate into 96-well c-myc ELISA plate (Novex, Life Technologies Catalog # KH02041). […] The rest of the assay was performed following the protocol from the c-myc ELISA kit. Data was analyzed and plotted using GraphPad Prism software.

LNCap and VCaP cells = experiment: Apoptosis, cell death and anti-proliferation in LNCaP and VCaP cell systems; format: cell-based; conditions: increasing concentrations of AR agonist R1881 and cells containing the AR F876L mutation
His-tagged VHL protein = His-tagged VHL protein (Homo sapiens (Human), UniProt P40337); experiment: Surface plasmon resonance (SPR) assay; format: binding; conditions: average of at least N=2, 1:1 fitting
Sequence of His-tagged VHL protein (P40337 whole entry, looked up): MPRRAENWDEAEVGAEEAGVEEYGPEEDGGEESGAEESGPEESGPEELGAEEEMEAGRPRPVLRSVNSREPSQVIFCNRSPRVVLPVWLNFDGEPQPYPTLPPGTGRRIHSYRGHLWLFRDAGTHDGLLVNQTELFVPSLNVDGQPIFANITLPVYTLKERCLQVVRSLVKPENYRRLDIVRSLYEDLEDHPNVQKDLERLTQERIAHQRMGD
Sequence of His-tagged VHL protein (Q15370 whole entry partner, looked up): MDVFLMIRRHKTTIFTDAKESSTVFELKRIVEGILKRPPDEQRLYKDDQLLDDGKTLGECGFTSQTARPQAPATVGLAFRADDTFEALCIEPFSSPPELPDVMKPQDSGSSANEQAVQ
Sequence of His-tagged VHL protein (Q15369 whole entry partner, looked up): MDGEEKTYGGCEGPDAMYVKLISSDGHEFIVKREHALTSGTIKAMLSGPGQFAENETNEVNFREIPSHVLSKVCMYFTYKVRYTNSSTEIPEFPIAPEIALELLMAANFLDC
Method: The surface plasmon resonance (SPR) experiments were conducted on a Biacore3000 (GE Healthcare). His-tagged VHL protein was immobilized on a carboxymethylated dextran surface with nitriloacetic acid (NTA), taking advantage of NTA/Ni^2+ chelation. The prepared surface was allowed to equilibrate over three hours in running buffer (Ambion 1×PBS buffer @ pH 7/4, 0.005% Tween, 2% DMSO).
All compounds were prepared in 100% DMSO stock plates with a top concentration of 5 mM in a 3× serial dilution. Compounds were transferred from the stock plate to the assay plate and diluted into running buffer containing no DMSO. All compounds were run as a six-concentration series with a final assay top concentration of 100 uM. Data analysis was performed in Scrubber 2 (BioLogic software, Campbell, Australia). Blanks were subtracted and data was corrected for DMSO using a standard DMSO curve.
Table 2 illustrates VHL inhibition data (i.e., Kd, μM) of examples contained herein in a surface plasmon resonance (SPR) assay.

SMILES	cMyc Imax (BRD4)	other results
Cc1ncsc1-c1ccc([C@H](C)NC(=O)[C@@H]2C[C@@H](O)CN2C(=O)[C@H](C(C)C)n2cc(-c3ccnc(O[C@H]4C[C@H](NC(=O)C[C@@H]5N=C(c6ccc(Cl)cc6)c6c(sc(C)c6C)-n6c(C)nnc65)C4)c3)cn2)cc1	++++ (71%≤Imax)	–
Cc1ncsc1-c1ccc([C@H](C)NC(=O)[C@@H]2C[C@@H](O)CN2C(=O)[C@H](C(C)C)n2cc(-c3ccnc(N4CC[C@H](NC(=O)C[C@@H]5N=C(c6ccc(Cl)cc6)c6c(sc(C)c6C)-n6c(C)nnc65)C4)c3)cn2)cc1	++++ (71%≤Imax)	–
CNC(=O)c1ccc(N2C(=S)N(c3ccc(C#N)c(C(F)(F)F)c3)C(=O)C2(C)C)cc1F [enzalutamide]	–	anti-proliferative activity (LNCap and VCaP cells): inactive
Cc1cc([C@H](C(=O)N2C[C@H](O)C[C@H]2C(=O)N[C@@H](C)c2ccc(-c3scnc3C)cc2)C(C)C)on1 [Example 205, (2S,4R)-4-hydroxy-N-[(1S)-1-[4-(4-methyl-1,3-thiazol-5-yl)phenyl]ethyl]-1-[(2R)-3-methyl-2-(3-methyl-1,2-oxazol-5-yl)butanoyl]pyrrolidine-2-carboxamide]	–	Kd (His-tagged VHL protein): 330 nM
Cc1ncsc1-c1ccc([C@H](C)NC(=O)[C@@H]2C[C@@H](O)CN2C(=O)[C@@H](C(C)C)n2cc(-c3ccnc(O[C@H]4C[C@H](NC(=O)C[C@@H]5N=C(c6ccc(Cl)cc6)c6c(sc(C)c6C)-n6c(C)nnc65)C4)c3)cn2)cc1	+++ (51%≤Imax≤70%)	–
Cc1ncsc1-c1ccc([C@H](C)NC(=O)[C@@H]2C[C@@H](O)CN2C(=O)[C@@H](n2cc(-c3ccnc(O[C@H]4C[C@@H](NC(=O)C[C@@H]5N=C(c6ccc(Cl)cc6)c6c(sc(C)c6C)-n6c(C)nnc65)C4)c3)cn2)C(C)(C)C)cc1	++++ (71%≤Imax)	–
Cc1ncsc1-c1ccc(CNC(=O)[C@@H]2C[C@@H](O)CN2C(=O)[C@H](C(C)C)n2cc(-c3cccc(O[C@H](C)CNC(=O)C[C@@H]4N=C(c5ccc(Cl)cc5)c5c(sc(C)c5C)-n5c(C)nnc54)c3)cn2)cc1	++++ (71%≤Imax)	–
CC[C@H](NC(=O)[C@@H]1C[C@@H](O)CN1C(=O)[C@@H](c1cc(C)no1)C(C)C)c1ccc(-c2scnc2C)cc1 [Example 207, (2S,4R)-4-hydroxy-N-[(1S)-1-[4-(4-methyl-1,3-thiazol-5-yl)phenyl]propyl]-1-[(2R)-3-methyl-2-(3-methyl-1,2-oxazol-5-yl)butanoyl]pyrrolidine-2-carboxamide]	–	Kd (His-tagged VHL protein): 240 nM
